Measured values as given in patent US20100105772A1, “USE OF NOVEL LIPID MEDIATORS TO INHIBIT ANGIOGENESIS” (priority 2008, published 2010).

Tests used:
[1] = system: suture-induced corneal NV (HA and LA); experiment: Suture-induced inflammatory corneal angiogenesis (slit-lamp NV score, blood and lymphatic vessel density); format: in vivo, mice
Method: FIG. 5. Suture-induced Corneal HA is Reduced with Lipoxin. ATLa or vehicle was subconjunctivally injected every 48 h from 0 to 14 days after suture placement. A. In a masked fashion, corneal NV was scored biomicroscopically with a slit-lamp using a grid system. Values are expressed as the mean (±SEM) of 6 corneas. B. Whole corneal tissues were harvested on day 14 and double-stained with anti-CD31 (green) and anti-LYVE-1 (red) for epifluorescence microscopy (20× magnification). C. The density of blood vessels (CD31^high/LYVE-1^−) or lymphatic vessels (CD31^lowLYVE-1^high) covering the cornea was analyzed. Values are expressed as the mean (±SEM) of 6 corneas of per treatment group (**P<0.001 vs vehicle-treated group, t-test), and the data are representative of two independent experiments. […]
BALB/c mice were randomized to receive ATLa, or vehicle (normal saline) by subconjunctival injection in a masked fashion after suture or hydron pellet placement. […] ATLa was synthesized as described previously.^20 The physical properties were monitored routinely via LC/MS/MS matching the reported biological and physical properties prior to analysis in present experiments.
Full thickness corneal tissue or 8 μm-frozen sections were fixed in acetone for 15 minutes at room temperature. […] Finally, the samples were covered with mounting medium (Vector Laboratories, Burlingame, Calif.) and analyzed by epifluorescence microscopy (Eclipse E800; Nikon, Tokyo, Japan). […]
To quantify corneal angiogenesis, digital pictures of corneal flat-mounts were taken using an image analysis system (Spot Image Analysis, Diagnostic Instruments, Sterling Heights, Mich.). The areas covered by CD31^high/LYVE-1^−-vessels (blood vessels) or CD31^lowLYVE-1^high vessels (lymphatics) were measured morphometrically using NIH Image J software (version 1.34s; http://rsb.info.nih.gov/ij). […]

[2] = stable analog of LXA4/ATL; reference 36; cited from earlier work
EC = conditions: cited from earlier work
IL-1β mRNA = experiment: Real-time PCR of IL-1β mRNA in suture-induced inflamed corneas; format: in vivo, mice; conditions: 24 h and 72 h after suture placement; vs vehicle-treated controls
Method: FIG. 3. Lipoxin Reduces Cytokine mRNA Expressions in Inflamed Corneas. ATLa or vehicle was subconjunctivally injected at 0 h and 48 h after suture placement. For each compound treatment, corneas were harvested from a group of mice at 24 h, and another group at 72 h after suture placement, as well as from normal untreated control corneas (6 corneas per group). mRNA levels of inflammatory cytokines (including IL-1α, IL-1β, and TNF-α) were determined by real-time PCR. Data were normalized to GAPDH mRNA and values were expressed as the fold change over normal control corneas. Results represent the mean (±SEM) of three samples per group (each sample consisted of 2 pooled corneas), and data are representative of two independent experiments (*P<0.05, **P<0.001 vs vehicle-treated group, t-test). […]
BALB/c mice were randomized to receive ATLa, or vehicle (normal saline) by subconjunctival injection in a masked fashion after suture or hydron pellet placement. […] ATLa was synthesized as described previously.^20 The physical properties were monitored routinely via LC/MS/MS matching the reported biological and physical properties prior to analysis in present experiments. […]

[3] = system: macrophage phagocytosis (e.g. of apoptotic neutrophils); conditions: reference 26; cited from earlier work

## COC(=O)CCC[C@H](O)[C@H](O)/C=C/C=C/C=C\C=C\[C@H](O)COc1ccc(F)cc1 [ATLa, 15-epi-16-(para-fluoro)-phenoxy-lipoxin A4 methyl ester]
[1]; 2-week time course, injection every 48 h, vs vehicle control
  angiogenic response (growth of corneal neovessels, slit lamp biomicroscopy): significant suppression
[1]; day 14 after suture placement, n=6, mean±SEM
  BV density (CD31high/LYVE-1−): 8.26±0.63%
[1]; day 14 after suture placement, vs vehicle controls
  density of lymphatic vessels (CD31low LYVE-1high): not observed
[2]
  local inactivation (stability): resists local inactivation
EC; VEGF-A-induced angiogenesis, references 37, 38
  EC adhesion: inhibition
EC; reference 39
  VEGF-A-induced EC proliferation: suppression
IL-1β mRNA
  reduction in the increase of IL-1β expression levels (mRNA): more than 50%
[3]
  macrophage phagocytosis: increase
